Test system: patients with negative symptoms of schizophrenia
Test: Integrated analysis of Studies #1 and #2 (pooled ITT): PANSS-derived scores (NSFS, total, positive and negative subscales), DB, OL and whole study
Type: in vivo, human
Design: key to NSFS Score change from Baseline, Median: change from Baseline in PANSS NSFS points; higher score = more severe
Details: for NSFS Score change from Baseline, LS mean (SE) / NSFS Score change from Baseline, Mean (SD) / NSFS Score change from Baseline, Median / NSFS Score, Difference (95% CI) in LS mean (vs placebo) / PANSS Negative Subscale Score change from Baseline, LS mean (SE) / PANSS Negative Subscale Score change from Baseline, Mean (SD) / PANSS Negative Subscale Score change from Baseline, Median / PANSS Negative Subscale Score, Difference (95% CI) in LS mean (vs placebo) / PANSS Total Score change from Baseline, LS mean (SE) / PANSS Total Score change from Baseline, Mean (SD) / PANSS Total Score change from Baseline, Median / PANSS Total Score, Difference (95% CI) in LS mean (vs placebo): DB
Description: The primary integrated analysis of the efficacy of Roluperidone compared with placebo for the treatment of negative symptoms of schizophrenia is based on the change from Baseline in the PANSS Marder's negative symptoms factor score (in this document referred to as NSFS) to Week 12. Efficacy is also supported by the analysis of change from Baseline in the PSP Total score and the CGI-S to Week 12.
The PANSS was assessed at the time points described in Table 4.
The PANSS-derived endpoints used in these studies and the integrated analyses are described in Table 5A and a summary of the individual PANSS items used by physicians and clinicians to measure the severity of the symptoms in a schizophrenia patient is provided in Table 5B. The scale is divided into three parts, a positive scale, which provides a “PANSS positive subscore”, a negative scale, which provides a “PANSS negative subscore”, and general psychopathology scale. The sum of these three parts provides a PANSS total score, which ranges from 30 to 210 (where higher scores indicate more severe symptoms). (See Kay, S. R., et al. “The positive and negative syndrome scale (PANSS) for schizophrenia,” Schizophr Bulletin, 13(2), 261-276 (1987) and Gopal, S., et al. “Improvement of Negative Symptoms in Schizophrenia with Paliperidone Palmitate 1-Month and 3-Month Long-Acting Injectables: Results from a Phase 3 Non-Inferiority Study” Neuropsychiatric Disease and Treatment, 681-690, DOI: 10.2147/NDT.5226296, both of which are incorporated by reference.)
The Efficacy data from Study Nos. 1 and 2 were pooled. The majority of patients in the pooled ITT population completed the DB period (502 patients overall, 66.3%), with similar rates in each treatment group (placebo: 69.8%, 32 mg Roluperidone: 65.3%, and 64 mg Roluperidone: 63.8%) (Table 12). The majority (62.7%) of those who completed the DB period entered the OL period. The most common reason for discontinuation during the DB period among patients overall was withdrawal of consent (15.6%), followed by adverse events (7.3%) and lack of efficacy (5.4%) (Table 12). […] Approximately twice as many patients in the Roluperidone groups (32 mg: 8.5%; 64 mg: 9.1%) discontinued due to adverse events compared with patients in the placebo group (4.3%). More patients in the placebo group discontinued due to lack of efficacy (6.7%) than in the Roluperidone groups (32 mg: 4.4%; 64 mg: 5.1%). The low number of patients who discontinued due to lack of efficacy or withdrawal of consent probably reflects a low level of worsening of positive symptoms.
The integrated analysis supporting the efficacy of Roluperidone as a treatment for the negative symptoms of schizophrenia in adults is presented below.

## 1H-Isoindol-1-one,2-[ [1-[2-(4-fluorophenyl)-2-oxoethyl]-4-piperidinyl]methyl]-2,3-dihydro-, hydrochloride, hydrate (1:1:2) [Roluperidone]
32 mg and 64 mg groups, OL period incl. 2 weeks after end of treatment, pooled
  Mean NSFS score improvements, persistence in OL period: sustained and continued during the OL period
32 mg, Week 2, pooled ITT
  NSFS Score change from Baseline, LS mean (SE): −1.1 (0.15)
  NSFS Score change from Baseline, Mean (SD): −1.1 (2.15)
  NSFS Score change from Baseline, Median: −1.0
  NSFS Score, Difference (95% CI) in LS mean (vs placebo): −0.2
  PANSS Negative Subscale Score change from Baseline, LS mean (SE): −1.2 (0.14)
  PANSS Negative Subscale Score change from Baseline, Mean (SD): −1.2 (2.11)
  PANSS Negative Subscale Score change from Baseline, Median: −1.0
  PANSS Negative Subscale Score, Difference (95% CI) in LS mean (vs placebo): −0.1
  PANSS Total Score change from Baseline, LS mean (SE): −1.7 (0.44)
  PANSS Total Score change from Baseline, Mean (SD): −1.8 (6.62)
  PANSS Total Score change from Baseline, Median: −2.0
  PANSS Total Score, Difference (95% CI) in LS mean (vs placebo): −0.4
  PANSS Positive Subscale Score change from Baseline, LS mean (SE): 0.3 (0.17)
  PANSS Positive Subscale Score change from Baseline, Mean (SD): 0.2 (2.71)
  PANSS Positive Subscale Score change from Baseline, Median: 0.0
  PANSS Positive Subscale Score, Difference (95% CI) in LS mean (vs placebo): 0.3
32 mg, Week 4, pooled ITT
  NSFS Score change from Baseline, LS mean (SE): −2.0 (0.19)
  NSFS Score change from Baseline, Mean (SD): −2.2 (2.53)
  NSFS Score change from Baseline, Median: −2.0
  NSFS Score, Difference (95% CI) in LS mean (vs placebo): −0.7
  PANSS Negative Subscale Score change from Baseline, LS mean (SE): −2.1 (0.19)
  PANSS Negative Subscale Score change from Baseline, Mean (SD): −2.3 (2.67)
  PANSS Negative Subscale Score change from Baseline, Median: −2.0
  PANSS Negative Subscale Score, Difference (95% CI) in LS mean (vs placebo): −0.6
  PANSS Total Score change from Baseline, LS mean (SE): −3.6 (0.53)
  PANSS Total Score change from Baseline, Mean (SD): −4.4 (7.09)
  PANSS Total Score change from Baseline, Median: −4.0
  PANSS Total Score, Difference (95% CI) in LS mean (vs placebo): −1.6
  PANSS Positive Subscale Score change from Baseline, LS mean (SE): −0.1 (0.18)
  PANSS Positive Subscale Score change from Baseline, Mean (SD): −0.4 (2.49)
  PANSS Positive Subscale Score change from Baseline, Median: 0.0
  PANSS Positive Subscale Score, Difference (95% CI) in LS mean (vs placebo): −0.3
32 mg, Week 8, pooled ITT
  NSFS Score change from Baseline, LS mean (SE): −3.0 (0.23)
  NSFS Score change from Baseline, Mean (SD): −3.2 (3.21)
  NSFS Score change from Baseline, Median: −3.0
  NSFS Score, Difference (95% CI) in LS mean (vs placebo): −0.8
  PANSS Negative Subscale Score change from Baseline, LS mean (SE): −3.1 (0.24)
  PANSS Negative Subscale Score change from Baseline, Mean (SD): −3.2 (3.46)
  PANSS Negative Subscale Score change from Baseline, Median: −3.0
  PANSS Negative Subscale Score, Difference (95% CI) in LS mean (vs placebo): −0.7
  PANSS Total Score change from Baseline, LS mean (SE): −4.9 (0.66)
  PANSS Total Score change from Baseline, Mean (SD): −6.2 (7.89)
  PANSS Total Score change from Baseline, Median: −6.0
  PANSS Total Score, Difference (95% CI) in LS mean (vs placebo): −1.7
  PANSS Positive Subscale Score change from Baseline, LS mean (SE): −0.1 (0.20)
  PANSS Positive Subscale Score change from Baseline, Mean (SD): −0.4 (2.50)
  PANSS Positive Subscale Score change from Baseline, Median: 0.0
  PANSS Positive Subscale Score, Difference (95% CI) in LS mean (vs placebo): −0.3
32 mg, Week 12, pooled ITT
  NSFS Score change from Baseline, LS mean (SE): −3.5 (0.26)
  NSFS Score change from Baseline, Mean (SD): −3.6 (3.08)
  NSFS Score change from Baseline, Median: −4.0
  NSFS Score, Difference (95% CI) in LS mean (vs placebo): −0.8
  PANSS Negative Subscale Score change from Baseline, LS mean (SE): −3.6 (0.27)
  PANSS Negative Subscale Score change from Baseline, Mean (SD): −3.6 (3.37)
  PANSS Negative Subscale Score change from Baseline, Median: −3.0
  PANSS Negative Subscale Score, Difference (95% CI) in LS mean (vs placebo): −0.7
  PANSS Total Score change from Baseline, LS mean (SE): −5.5 (0.71)
  PANSS Total Score change from Baseline, Mean (SD): −6.9 (7.77)
  PANSS Total Score change from Baseline, Median: −7.0
  PANSS Total Score, Difference (95% CI) in LS mean (vs placebo): −1.9
  NSFS, LS mean decrease from Baseline compared with placebo: −3.5
  PANSS Positive Subscale Score change from Baseline, LS mean (SE): −0.1 (0.21)
  PANSS Positive Subscale Score change from Baseline, Mean (SD): −0.6(2.37)
  PANSS Positive Subscale Score change from Baseline, Median: 0.0
  PANSS Positive Subscale Score, Difference (95% CI) in LS mean (vs placebo): −0.3
  PANSS negative subscale score, LS mean change from Baseline compared with placebo: −0.7
32 mg, Week 12, ITT
  NSFS Emotional Experience Score, Change from Baseline (LS Means [SEM]): −1.3 (0.13)
  NSFS Emotional Expression Score, Change from Baseline (LS Means [SEM]): −2.2 (0.16)
  NSFS, Change from Baseline (LS Means [SEM]): −3.5 (0.26)
  PANSS General Psychopathology Subscale, Change from Baseline (LS Means [SEM]): −2.0 (0.37)
  PANSS Negative Symptoms Subscale, Change from Baseline (LS Means [SEM]): −3.6 (0.27)
  PANSS Positive Symptoms Subscale, Change from Baseline (LS Means [SEM]): −0.1 (0.21)
  PANSS Total Score, Change from Baseline (LS Means [SEM]): −5.5 (0.71)
32 mg, Week 12, pooled
  Patients with high improvement in NSFS (magnitude of change >8): 5%
  Patients with moderate improvement in NSFS (magnitude of change 6-8): 18%
  Patients with moderate or high improvement in NSFS, total: 23%

Reference: US20230255953A1, “USE OF ROLUPERIDONE IN PREVENTING RELAPSE IN SCHIZOPHRENIA PATIENTS” (Minerva Neurosciences, Inc., priority 2022, published 2023)
